According to US10183914B2 (BAYER CROPSCIENCE AKTIENGESELLSCHAFT, priority 2014, dated 2019):

What was measured:
[1] = logp (HCOOH), physicochemical characterization
Veronica persica = test: Pre-emergence herbicidal effect; format: in vivo; details: 3 weeks
Description: (§1) Seeds of monocotyledonous and dicotyledonous weed plants and crop plants are laid out in wood-fiber pots in sandy loam and covered with soil. The compounds of the invention, formulated in the form of wettable powders (WP) or as emulsion concentrates (EC), are then applied to the surface of the covering soil as aqueous suspension or emulsion at a water application rate equating to 600 to 800 L/ha with addition of 0.2% wetting agent.
(§2) After the treatment, the pots are placed in a greenhouse and kept under good growth conditions for the trial plants. The damage to the trial plants is scored visually after a trial duration of 3 weeks by comparison with untreated controls (herbicidal activity in percent (%): 100% efficacy=the plants have died, 0% efficacy=like control plants).

Amaranthus retroflexus = test: Pre-emergence herbicidal effect; format: in vivo; details: 3 weeks
Description: as §1, §2

Polygonum convolvulus = test: Pre-emergence herbicidal effect; format: in vivo; details: 3 weeks
Description: as §1, §2

Matricaria inodora = test: Pre-emergence herbicidal effect; format: in vivo; details: 3 weeks
Description: as §1, §2

Viola tricolor = test: Pre-emergence herbicidal effect; format: in vivo; details: 3 weeks
Description: as §1, §2

Stellaria media = test: Pre-emergence herbicidal effect; format: in vivo; details: 3 weeks
Description: as §1, §2

Zea mays = test: Pre-emergence herbicidal effect and crop plant compatibility; format: in vivo; details: 3 weeks
Description: as §1, §2

[2] = test system: Triticum aestivum (spring); test: as above; format: in vivo; details: 3 weeks
Description: as §1, §2

Echinochloa crus-galli = test: Pre-emergence herbicidal effect; format: in vivo; details: 320 g/ha, 3 weeks
Description: as §1, §2

Oryza sativa = test: Pre-emergence herbicidal effect and crop plant compatibility; format: in vivo; details: 3 weeks
Description: as §1, §2

Setaria viridis = test: Pre-emergence herbicidal effect; format: in vivo; details: 320 g/ha, 3 weeks
Description: as §1, §2

[3] = test system: Triticum aestivum (spring); test: Post-emergence herbicidal effect and crop plant compatibility; format: in vivo; details: 320 g/ha, visual scoring after about 3 weeks
Protocol: Seeds of monocotyledonous and dicotyledonous weed and crop plants are laid out in sandy loam in wood-fiber pots, covered with soil and cultivated in a greenhouse under good growth conditions. 2 to 3 weeks after sowing, the test plants are treated at the one-leaf stage. The compounds of the invention, formulated in the form of wettable powders (WP) or as emulsion concentrates (EC), are then sprayed onto the green parts of the plants as aqueous suspension or emulsion at a water application rate equating to 600 to 800 L/ha with addition of 0.2% wetting agent. After the trial plants have been left to stand in a greenhouse under optimal growth conditions for about 3 weeks, the efficacy of the formulations is scored visually in comparison to untreated controls (herbicidal action in percent (%): 100% efficacy=the plants have died, 0% efficacy=like control plants).

Row | Compound | logp (HCOOH) [1] | VERPE herbicidal activity in percent (Veronica persica; 320 g/ha) | AMARE herbicidal activity in percent (Amaranthus retroflexus; 320 g/ha) | MATIN herbicidal activity in percent (Matricaria inodora; 320 g/ha) | VIOTR herbicidal activity in percent (Viola tricolor; 320 g/ha) | STEME herbicidal activity in percent (Stellaria media; 320 g/ha) | ZEAMX herbicidal activity in percent (Zea mays; 320 g/ha) | TRZAS herbicidal activity in percent ([2]; 320 g/ha) | MATIN herbicidal activity in percent (Matricaria inodora; 80 g/ha) | ZEAMX herbicidal activity in percent (Zea mays; 80 g/ha) | TRZAS herbicidal activity in percent ([2]; 80 g/ha) | further results
1 | CC1CCC(Nc2ncc3c(n2)CCCC3=O)c2ccccc21 (racemic) [2.111] | oily; logp (HCOOH): 3.37; 1H-NMR (CDCl3, 400 MHZ, δ in ppm): 1.35 (d, 3H, 3H |  |  |  |  |  |  |  |  |  |  | 
2 | CC(=O)c1cnc(NC2c3ccccc3CCC2C)nc1 (racemic) [1.20] | oily; logp (HCOOH): 2.93; 1H-NMR (CDCl3, 400 MHZ, δ in ppm): 1.05 (d, 3H, CH3); | 100% | 90% | 90% | 90% | 100% | 0% | 20% |  |  |  | VERPE herbicidal activity in percent (Veronica persica; 1280 g/ha): 100%; AMARE herbicidal activity in percent (Amaranthus retroflexus; 1280 g/ha): 100%; POLCO herbicidal activity in percent (Polygonum convolvulus; 1280 g/ha): 100%; MATIN herbicidal activity in percent (Matricaria inodora; 1280 g/ha): 100%; VIOTR herbicidal activity in percent (Viola tricolor; 1280 g/ha): 100%; STEME herbicidal activity in percent (Stellaria media; 1280 g/ha): 100%; ZEAMX herbicidal activity in percent (Zea mays; 1280 g/ha): 0%
3 | O=C1CCCc2nc(NC3CCSc4ccc(F)cc43)ncc21 (racemic) [2.114] | oily; logp (HCOOH): 2.77; 1H-NMR (CDCl3, 400 MHZ, δ in ppm): 2.10 (m, 2H, 2H |  |  |  |  |  |  |  |  |  |  | 
4 | CC1CCc2ccccc2C1Nc1ncc2c(n1)CC(C)(C)CC2=O (racemic) [2.95] | oily; logp (HCOOH): 4.02; 1H-NMR (CDCl3, 400 MHZ, δ in ppm): 1.10 (s + d, 9H, | 100% | 100% | 90% | 100% | 100% | 0% | 0% | 90% | 0% | 0% | VERPE herbicidal activity in percent (Veronica persica; 80 g/ha): 100%; AMARE herbicidal activity in percent (Amaranthus retroflexus; 80 g/ha): 100%; ECHCG herbicidal activity in percent (Echinochloa crus-galli): 80%; STEME herbicidal activity in percent (Stellaria media; 80 g/ha): 100%; ORYSA herbicidal activity in percent (Oryza sativa; 80 g/ha): 0%; ORYSA herbicidal activity in percent (Oryza sativa; 320 g/ha): 0%
5 | CC(=O)c1cnc(N[C@@H]2CCc3ccccc32)nc1C [1.89] | solid; logp (HCOOH): 2.80; 1H-NMR (CDCl3, 400 MHZ, δ in ppm: 1.90 (m, 1H, 1H | 100% | 100% | 100% | 100% | 80% | 0% | 0% | 100% | 0% | 0% | VERPE herbicidal activity in percent (Veronica persica; 80 g/ha): 80%; VIOTR herbicidal activity in percent (Viola tricolor; 80 g/ha): 90%; STEME herbicidal activity in percent (Stellaria media; 80 g/ha): 80%; ORYSA herbicidal activity in percent (Oryza sativa; 320 g/ha): 0%
6 | CC(=O)c1cnc(N[C@H]2c3cc(C)ccc3C[C@@H]2C)nc1 [1.10] |  |  |  |  |  |  |  |  |  |  |  | chromatographic logP ([1]; HCOOH): 2.99
7 | CC(=O)c1cnc(NC2CCOc3c(C)cc(F)cc32)nc1C (racemic) [1.87] |  | 100% | 100% | 100% | 100% | 100% | 10% | 0% | 90% | 0% | 0% | AMARE herbicidal activity in percent (Amaranthus retroflexus; 80 g/ha): 80%; SETVI herbicidal activity in percent (Setaria viridis): 100%; ECHCG herbicidal activity in percent (Echinochloa crus-galli): 100%; VIOTR herbicidal activity in percent (Viola tricolor; 80 g/ha): 100%; ORYSA herbicidal activity in percent (Oryza sativa; 80 g/ha): 0%
8 | CC(=O)c1cnc(N[C@@H]2CCCc3ccccc32)nc1C [1.82, 1-{4-methyl-2-[(1R)-1,2,3,4-tetrahydronaphthalen-1-ylamino]pyrimidin-5-yl}ethanone] |  | 100% | 90% | 90% | 100% | 100% |  | 0% | 90% | 0% | 0% | chromatographic logP ([1]; HCOOH (formic acid)): 3.03; VERPE herbicidal activity in percent (Veronica persica; 80 g/ha): 100%; AMARE herbicidal activity in percent (Amaranthus retroflexus; 80 g/ha): 90%; POLCO herbicidal activity in percent (Polygonum convolvulus; 320 g/ha): 80%; VIOTR herbicidal activity in percent (Viola tricolor; 80 g/ha): 100%; post-emergence efficacy TRZAS [3]: 0%; ORYSA herbicidal activity in percent (Oryza sativa; 80 g/ha): 0%; ORYSA herbicidal activity in percent (Oryza sativa; 320 g/ha): 3%
9 | CCC1Cc2ccc(C)cc2C1Nc1ncc2c(n1)CCCC2=O (racemic) [2.106] | oily; logp (HCOOH): 3.90; 1H-NMR (CDCl3, 400 MHZ, δ in ppm): 0.95 (t, 3H, CH3); |  |  |  |  |  |  |  |  |  |  | 
10 | COc1ccc2c(c1)OC(C)(C)CC2Nc1ncc(C(C)=O)c(C)n1 (racemic) [1.96] | solid; m.p.: 183.5° C.; logp (HCOOH): 3.12; 1H-NMR (CDCl3, 400 MHZ, δ in ppm): |  |  |  |  |  |  |  |  |  |  | 
11 | COc1ccc2c(c1)CCCC2Nc1ncc2c(n1)CCCC2=O (racemic) [2.109] | solid; m.p.: 151.3° C.; logp (HCOOH): 2.83; 1H-NMR (CDCl3, 400 MHZ, δ in ppm): |  |  |  |  |  |  |  |  |  |  | 
